Key:
[1] = system: human primary erythroid progenitor CD34+ cells; experiment: Effects on human primary erythroid progenitor CD34+ cells (F cells by flow cytometry, globin mRNA by qRT-PCR), Example 7; type: cell-based; details: for percentage of HbF-positive cells (F cells): flow cytometry
Procedure: The effects of the compounds and formulations described in Sections 3.2 and 3.3 hereinabove on human primary erythroid progenitor CD34^+ cells are studies using methods adapted from Sun et al. Sun et al., Br J Haematol. 197:97-109 (2022), the disclosure of which is herein incorporated by reference in its entirety. HbF-positive cells (F cells) are quantified by flow cytometry after compound exposure. Globin gene mRNA abundance is determined by quantitative real-time polymerase chain reaction (qRT-PCR).

[2] = system: SCD mice; experiment: Effects on SCD mice (globin gene expression by qRT-PCR, F cells in peripheral blood by flow cytometry), Example 8; type: in vivo
Procedure: The effects of the compounds and formulations described in Sections 3.2 and 3.3 on SCD mice are studied using methods adapted from Sun et al., Br J Haematol. 197:97-109 (2022), the disclosure of which is herein incorporated by reference in its entirety. Relative mRNA abundance of PGC-1α and globin gene expression are determined by quantitative real-time polymerase chain reaction (qRT-PC R). HbF-positive cells (F cells) in peripheral blood of treated SCD mice are quantified by flow cytometry

[3] = Solubility (statement); type: physicochemical
Description: Oral administration is preferred to parenteral administration for chronic life-long treatment, as is required for treating hemoglobinopathies such as sickle cell disease. […] There is a need, therefore, for agents that increase PGC-1α expression that can be administered orally for treatment of hemoglobinopathies such as SCD.

[4] = system: human primary erythroid progenitor CD34+ cells; details: cited from earlier work
[5] = system: sickle mice; details: cited from earlier work
[6] = system: Ppargc1α (PGC-1α) expression; details: cited from earlier work
[7] = system: murine models of neurodegenerative diseases; details: cited from earlier work
[8] = system: older mice; details: cited from earlier work
[9] = system: acute systemic immune activation, including cytokine release syndrome (CRS); details: cited from earlier work

solubility [3]	Structure (SMILES)	fetal γ-globin mRNA protein expression [1]	percentage of HbF-positive cells (F cells) [1]	expression of the murine embryonic βh1-globin gene [2]	human γ-globin gene expression [2]	cell proliferation and differentiation [4]	fetal γ-globin mRNA and protein expression [4]	percentage of HbF-positive cell (F cells) [4]	expression of the murine embryonic βh1-globin gene [5]	γ-globin expression and fetal hemoglobin (HbF) production [5]	Ppargc1α (PGC-1α) expression [6]	disease severity [7]	myeloid-mediated inflammation [7]	behavioral dysfunction [8]	inflammatory cytokine production in microglia [8]	metabolic dysfunction in microglia [8]	systemic inflammation [8]	acute systemic immune activation, including cytokine release syndrome (CRS) [9]
–	CC(C)(C)c1ccc(-c2nc3cc(O)ccc3[nH]2)cc1 [Compound 26, 2-(4-tert-Butylphenyl)-1H-benzo[d]imidazol-5-ol]	induce	induce	induce	induce	–	–	–	–	–	–	–	–	–	–	–	–	–
poorly soluble	CC(C)(C)c1ccc(-c2nc3ccccc3[nH]2)cc1 [TQS-168, 2-(4-tert-butylphenyl)-1H-benzimidazole]	induce	induce	induce	induce	without significantly affecting	induce	induce	robust expression	induce	activator	reduce	suppress	alleviate	inhibit	suppress	suppress	suppress

Source: US20260199293A1, “2-Arylbenzimidazole Compounds for the Treatment of Hemoglobinopathies” (TRANQUIS THERAPEUTICS, INC., priority 2022, published 2026)
